# Key:
# [1] = molecular target: T1, Phosphatidylinositol 4,5-bisphosphate 3-kinase catalytic subunit alpha isoform (Homo sapiens, UniProt P42336); experiment: Inhibition of recombinant human PI3Kalpha using PIP2/ATP as substrate preincubated for 20 mins followed by substrate addition measured after 80 mins by Kinase-Glo plus assay
# [2] = molecular target: T2, Phosphatidylinositol 4,5-bisphosphate 3-kinase catalytic subunit beta isoform (Homo sapiens, UniProt P42338); experiment: Inhibition of recombinant human PI3Kbeta using PIP2/ATP as substrate preincubated for 20 mins followed by substrate addition measured after 80 mins by Kinase-Glo plus assay
# [3] = molecular target: Vascular endothelial growth factor receptor 2 (Homo sapiens, UniProt P35968); experiment: Inhibition of KDR (unknown origin)
# [4] = molecular target: T1, Phosphatidylinositol 4,5-bisphosphate 3-kinase catalytic subunit alpha isoform; experiment: Inhibition of PI3Kalpha in human BT474 cells assessed as inhibition of Akt phosphorylation at […] after 2 hrs by ELISA; format: cell-based, BT-474
# [5] = molecular target: T2, Phosphatidylinositol 4,5-bisphosphate 3-kinase catalytic subunit beta isoform; experiment: Inhibition of PI3Kbeta in human MDA-MB-468 cells assessed as inhibition of Akt phosphorylation at Ser-473 after 2 hrs by ELISA; format: cell-based
# [6] = Octanol/buffer partition co-efficient, log D of the compound at pH 7.4 after 30 mins by shake-flask method; format: physicochemical
# [7] = molecular target: Phosphatidylinositol 4,5-bisphosphate 3-kinase catalytic subunit gamma isoform (Homo sapiens, UniProt P48736); experiment: Inhibition of recombinant human PI3Kgamma using PIP2/ATP as substrate preincubated for 20 mins followed by substrate addition measured after 80 mins by Kinase-Glo plus assay
# [8] = molecular target: T3, Phosphatidylinositol 4,5-bisphosphate 3-kinase catalytic subunit delta isoform (Homo sapiens, UniProt O00329); experiment: Inhibition of recombinant human PI3Kdelta using PIP2/ATP as substrate preincubated for 20 mins followed by substrate addition measured after 80 mins by Kinase-Glo plus assay
# T3 sequence (O00329 whole entry): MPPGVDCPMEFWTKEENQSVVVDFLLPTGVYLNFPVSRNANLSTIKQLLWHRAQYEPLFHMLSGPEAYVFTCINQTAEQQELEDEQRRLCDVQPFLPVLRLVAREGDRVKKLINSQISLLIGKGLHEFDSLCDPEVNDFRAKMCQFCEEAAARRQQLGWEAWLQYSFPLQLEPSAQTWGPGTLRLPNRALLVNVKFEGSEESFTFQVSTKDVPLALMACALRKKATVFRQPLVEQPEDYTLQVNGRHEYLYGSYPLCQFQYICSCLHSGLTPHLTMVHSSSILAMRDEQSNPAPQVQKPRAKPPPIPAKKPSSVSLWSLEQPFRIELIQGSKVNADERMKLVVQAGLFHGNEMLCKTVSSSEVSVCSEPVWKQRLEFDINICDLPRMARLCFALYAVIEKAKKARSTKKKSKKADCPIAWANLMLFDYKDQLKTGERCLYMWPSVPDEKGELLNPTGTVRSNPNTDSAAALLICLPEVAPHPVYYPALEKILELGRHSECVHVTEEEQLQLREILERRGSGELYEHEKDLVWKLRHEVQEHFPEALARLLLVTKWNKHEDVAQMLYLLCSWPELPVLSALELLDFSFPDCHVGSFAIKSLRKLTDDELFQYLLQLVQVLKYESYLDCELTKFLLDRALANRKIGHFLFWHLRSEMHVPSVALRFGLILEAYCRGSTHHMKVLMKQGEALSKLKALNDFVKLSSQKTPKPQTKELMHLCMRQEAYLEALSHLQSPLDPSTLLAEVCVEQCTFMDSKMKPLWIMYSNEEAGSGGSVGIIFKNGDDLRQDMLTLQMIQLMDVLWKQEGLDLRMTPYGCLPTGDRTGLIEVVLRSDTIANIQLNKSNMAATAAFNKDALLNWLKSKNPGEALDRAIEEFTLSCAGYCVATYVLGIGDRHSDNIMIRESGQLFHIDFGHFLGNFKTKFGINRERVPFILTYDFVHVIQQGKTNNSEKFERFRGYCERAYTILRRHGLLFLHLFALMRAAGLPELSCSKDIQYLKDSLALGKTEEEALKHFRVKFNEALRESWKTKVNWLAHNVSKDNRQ
# [9] = molecular target: Serine/threonine-protein kinase mTOR (Homo sapiens, UniProt P42345); experiment: Inhibition of m-TOR (unknown origin)
# [10] = molecular target: Receptor-interacting serine/threonine-protein kinase 2 (Homo sapiens) (UniProt O43353); experiment: Inhibition of RIPK2 (unknown origin) at 1 uM preincubated for 5 mins with enzyme and substrate followed by ATP addition relative to control
# [11] = molecular target: Dual specificity tyrosine-phosphorylation-regulated kinase 1A (Homo sapiens) (UniProt Q13627); experiment: Inhibition of DYRK1A (unknown origin) at 1 uM preincubated for 5 mins with enzyme and substrate followed by ATP addition relative to control
# [12] = molecular target: Glycogen synthase kinase-3 beta (Homo sapiens) (UniProt P49841); experiment: Inhibition of GSK-3beta (unknown origin) at 1 uM preincubated for 5 mins with enzyme and substrate followed by ATP addition relative to control
# Glycogen synthase kinase-3 beta (Homo sapiens), sequence (P49841 whole entry, looked up): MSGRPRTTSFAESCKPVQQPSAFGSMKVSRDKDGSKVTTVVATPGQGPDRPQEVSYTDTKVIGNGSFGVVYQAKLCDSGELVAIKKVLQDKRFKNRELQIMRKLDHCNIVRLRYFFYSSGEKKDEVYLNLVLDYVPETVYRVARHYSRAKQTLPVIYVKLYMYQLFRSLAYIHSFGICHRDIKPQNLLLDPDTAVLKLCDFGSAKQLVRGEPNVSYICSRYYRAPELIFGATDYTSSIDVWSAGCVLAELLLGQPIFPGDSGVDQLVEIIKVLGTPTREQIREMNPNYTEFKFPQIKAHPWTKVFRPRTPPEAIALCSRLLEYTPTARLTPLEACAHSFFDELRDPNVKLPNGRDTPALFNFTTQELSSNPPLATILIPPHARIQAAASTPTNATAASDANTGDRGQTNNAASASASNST
# T2 sequence (P42338 whole entry, canonical isoform): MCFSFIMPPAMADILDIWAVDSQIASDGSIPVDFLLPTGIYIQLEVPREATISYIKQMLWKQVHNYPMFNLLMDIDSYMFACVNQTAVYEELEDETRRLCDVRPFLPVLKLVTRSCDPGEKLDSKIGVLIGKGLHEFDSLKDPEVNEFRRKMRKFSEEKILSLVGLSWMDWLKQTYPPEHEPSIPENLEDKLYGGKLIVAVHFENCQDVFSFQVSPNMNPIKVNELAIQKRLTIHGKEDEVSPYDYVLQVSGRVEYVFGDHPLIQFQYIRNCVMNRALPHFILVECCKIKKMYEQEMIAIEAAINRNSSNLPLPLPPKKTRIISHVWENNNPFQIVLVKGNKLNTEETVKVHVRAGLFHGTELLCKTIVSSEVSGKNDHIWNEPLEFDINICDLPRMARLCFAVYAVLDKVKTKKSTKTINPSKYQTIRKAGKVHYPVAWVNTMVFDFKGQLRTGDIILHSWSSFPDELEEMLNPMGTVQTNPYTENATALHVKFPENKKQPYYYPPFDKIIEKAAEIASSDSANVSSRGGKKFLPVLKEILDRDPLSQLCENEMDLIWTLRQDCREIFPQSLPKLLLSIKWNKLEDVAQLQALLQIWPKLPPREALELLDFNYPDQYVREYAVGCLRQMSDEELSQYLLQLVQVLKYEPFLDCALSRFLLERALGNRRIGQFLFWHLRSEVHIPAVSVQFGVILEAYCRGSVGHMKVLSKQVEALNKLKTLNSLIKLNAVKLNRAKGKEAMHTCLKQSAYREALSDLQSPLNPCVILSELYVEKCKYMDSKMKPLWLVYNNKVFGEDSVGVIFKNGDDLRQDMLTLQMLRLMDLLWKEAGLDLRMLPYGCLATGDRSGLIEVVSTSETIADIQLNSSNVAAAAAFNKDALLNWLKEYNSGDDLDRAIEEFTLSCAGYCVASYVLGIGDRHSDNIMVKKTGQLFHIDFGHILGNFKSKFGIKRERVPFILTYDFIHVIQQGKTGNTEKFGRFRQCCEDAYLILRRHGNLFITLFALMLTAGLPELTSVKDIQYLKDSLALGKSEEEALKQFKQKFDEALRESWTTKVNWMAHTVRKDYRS
# T1 sequence (P42336 whole entry, canonical isoform): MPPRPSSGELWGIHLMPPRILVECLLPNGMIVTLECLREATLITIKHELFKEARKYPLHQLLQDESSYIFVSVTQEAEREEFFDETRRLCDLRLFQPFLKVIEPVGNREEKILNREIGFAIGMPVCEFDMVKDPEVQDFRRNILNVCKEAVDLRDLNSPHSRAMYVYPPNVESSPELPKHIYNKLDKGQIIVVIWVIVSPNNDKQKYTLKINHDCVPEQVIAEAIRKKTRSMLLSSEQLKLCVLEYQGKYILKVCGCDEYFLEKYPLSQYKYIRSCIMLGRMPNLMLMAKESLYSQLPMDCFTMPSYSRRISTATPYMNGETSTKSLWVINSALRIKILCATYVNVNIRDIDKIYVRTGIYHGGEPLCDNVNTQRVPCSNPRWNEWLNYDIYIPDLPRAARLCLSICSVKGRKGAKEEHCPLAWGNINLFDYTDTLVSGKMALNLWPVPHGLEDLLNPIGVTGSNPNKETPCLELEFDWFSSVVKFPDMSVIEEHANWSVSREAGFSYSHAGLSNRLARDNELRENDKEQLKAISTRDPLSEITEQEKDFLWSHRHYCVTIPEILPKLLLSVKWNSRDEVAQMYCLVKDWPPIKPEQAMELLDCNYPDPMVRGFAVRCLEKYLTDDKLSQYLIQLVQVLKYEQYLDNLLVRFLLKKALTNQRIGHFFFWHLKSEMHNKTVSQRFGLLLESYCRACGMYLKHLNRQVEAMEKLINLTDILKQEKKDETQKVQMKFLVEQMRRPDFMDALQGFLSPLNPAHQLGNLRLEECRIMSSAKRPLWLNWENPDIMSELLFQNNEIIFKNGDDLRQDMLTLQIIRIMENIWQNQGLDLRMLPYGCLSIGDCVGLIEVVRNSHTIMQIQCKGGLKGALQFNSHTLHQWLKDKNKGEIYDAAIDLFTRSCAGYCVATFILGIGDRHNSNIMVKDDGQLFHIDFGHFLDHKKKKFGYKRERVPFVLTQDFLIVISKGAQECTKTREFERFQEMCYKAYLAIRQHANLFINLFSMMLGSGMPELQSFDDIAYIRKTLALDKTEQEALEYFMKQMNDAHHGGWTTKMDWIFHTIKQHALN
# Vascular endothelial growth factor receptor 2, sequence (P35968 whole entry, canonical isoform): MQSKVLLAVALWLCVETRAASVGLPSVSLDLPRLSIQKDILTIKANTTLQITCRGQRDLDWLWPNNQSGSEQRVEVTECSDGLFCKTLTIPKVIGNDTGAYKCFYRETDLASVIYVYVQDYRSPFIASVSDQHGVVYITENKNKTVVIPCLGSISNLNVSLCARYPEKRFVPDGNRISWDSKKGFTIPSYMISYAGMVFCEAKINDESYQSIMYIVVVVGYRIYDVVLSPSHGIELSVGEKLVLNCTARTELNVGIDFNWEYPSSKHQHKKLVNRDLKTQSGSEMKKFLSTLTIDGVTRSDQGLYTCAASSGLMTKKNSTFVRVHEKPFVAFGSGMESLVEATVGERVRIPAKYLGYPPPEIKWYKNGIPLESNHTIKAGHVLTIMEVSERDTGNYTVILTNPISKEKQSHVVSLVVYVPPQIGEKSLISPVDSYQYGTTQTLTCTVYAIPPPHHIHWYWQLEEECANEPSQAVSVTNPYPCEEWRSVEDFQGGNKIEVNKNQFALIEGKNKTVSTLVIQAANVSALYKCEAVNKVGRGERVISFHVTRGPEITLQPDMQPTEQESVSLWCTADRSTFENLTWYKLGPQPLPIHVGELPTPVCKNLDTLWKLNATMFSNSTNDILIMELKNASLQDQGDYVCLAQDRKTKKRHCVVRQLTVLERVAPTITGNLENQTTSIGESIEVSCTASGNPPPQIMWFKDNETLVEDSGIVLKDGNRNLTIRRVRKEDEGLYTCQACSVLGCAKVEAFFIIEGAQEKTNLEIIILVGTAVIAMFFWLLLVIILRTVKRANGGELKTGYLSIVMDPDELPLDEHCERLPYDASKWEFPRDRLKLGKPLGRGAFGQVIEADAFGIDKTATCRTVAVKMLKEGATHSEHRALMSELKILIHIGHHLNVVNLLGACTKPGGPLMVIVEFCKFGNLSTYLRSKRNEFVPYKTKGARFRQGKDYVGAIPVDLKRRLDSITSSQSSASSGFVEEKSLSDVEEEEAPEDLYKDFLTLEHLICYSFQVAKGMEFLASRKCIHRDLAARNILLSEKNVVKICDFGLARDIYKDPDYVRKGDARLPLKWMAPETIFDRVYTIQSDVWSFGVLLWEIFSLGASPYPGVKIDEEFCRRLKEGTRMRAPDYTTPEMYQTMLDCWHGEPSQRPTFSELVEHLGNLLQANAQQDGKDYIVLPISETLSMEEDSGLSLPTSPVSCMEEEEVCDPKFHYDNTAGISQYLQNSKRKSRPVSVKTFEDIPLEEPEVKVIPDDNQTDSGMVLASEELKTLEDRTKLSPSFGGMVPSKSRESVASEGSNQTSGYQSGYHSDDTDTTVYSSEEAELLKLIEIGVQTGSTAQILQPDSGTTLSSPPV
# Phosphatidylinositol 4,5-bisphosphate 3-kinase catalytic subunit gamma isoform, sequence (P48736 whole entry, canonical isoform): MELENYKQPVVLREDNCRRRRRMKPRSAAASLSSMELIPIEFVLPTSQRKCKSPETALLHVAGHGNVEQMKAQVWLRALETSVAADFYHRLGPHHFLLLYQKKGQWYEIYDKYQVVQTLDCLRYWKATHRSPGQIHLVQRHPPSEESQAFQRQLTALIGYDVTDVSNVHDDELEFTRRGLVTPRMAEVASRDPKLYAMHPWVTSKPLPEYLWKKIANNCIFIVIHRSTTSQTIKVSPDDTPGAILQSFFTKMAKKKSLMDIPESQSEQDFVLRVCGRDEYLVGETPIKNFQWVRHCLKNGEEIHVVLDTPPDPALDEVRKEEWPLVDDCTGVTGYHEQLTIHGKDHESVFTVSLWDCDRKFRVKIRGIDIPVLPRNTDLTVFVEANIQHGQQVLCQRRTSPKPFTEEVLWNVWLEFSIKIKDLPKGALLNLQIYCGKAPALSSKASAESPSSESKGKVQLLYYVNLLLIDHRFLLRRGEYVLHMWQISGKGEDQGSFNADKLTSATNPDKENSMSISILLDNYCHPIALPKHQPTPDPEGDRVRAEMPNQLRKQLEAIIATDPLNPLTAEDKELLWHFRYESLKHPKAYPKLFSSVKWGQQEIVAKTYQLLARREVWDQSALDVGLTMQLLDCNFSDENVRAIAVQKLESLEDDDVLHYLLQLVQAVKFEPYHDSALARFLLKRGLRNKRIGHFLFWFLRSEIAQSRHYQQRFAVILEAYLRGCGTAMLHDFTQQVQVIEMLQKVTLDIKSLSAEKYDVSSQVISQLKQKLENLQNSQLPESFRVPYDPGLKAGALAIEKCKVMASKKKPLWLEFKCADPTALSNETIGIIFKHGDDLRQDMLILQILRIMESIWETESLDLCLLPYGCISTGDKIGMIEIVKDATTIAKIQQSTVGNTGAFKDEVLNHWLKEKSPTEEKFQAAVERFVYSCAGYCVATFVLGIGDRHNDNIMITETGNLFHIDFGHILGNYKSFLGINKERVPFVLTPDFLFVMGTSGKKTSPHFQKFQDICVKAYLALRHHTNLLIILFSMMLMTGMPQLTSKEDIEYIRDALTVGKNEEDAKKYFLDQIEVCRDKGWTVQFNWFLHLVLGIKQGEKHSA
Compound,IC50 [1] [nM],IC50 [2] [nM],IC50 [3] [nM],IC50 [4] [nM],IC50 [5] [µM],logD at 0.5 h [6],IC50 [7] [nM],IC50 [8] [nM],IC50 [9] [µM],inhibition [10] [%],inhibition [11] [%],inhibition [12] [%]
CN(C)CC(=O)N1CCC(c2nc(-c3cnc(N)c(-n4nnc5ccccc54)n3)nn2C)CC1,280,2400,1200,3900,12,1,–,–,–,–,–,–
CN(C)CC(=O)N1CCC(n2ccc(-c3cnc(N)c(-n4nnc5ccccc54)n3)n2)CC1,27,1700,170,250,10,1.8,–,–,–,–,–,–
CN(C)CC(=O)N1CCC(n2ncc(-c3cnc(N)c(-n4nnc5ccccc54)n3)n2)CC1,21,650,210,140,7.8,1.9,–,–,–,–,–,–
CN(C)CC(=O)N1CCC(n2cc(-c3cnc(N)c(-n4nnc5ccccc54)n3)cn2)CC1,16,900,29,58,13,1.7,280,20,15,–,–,–

# Continued, values first:
IC50 [1] [nM],IC50 [2] [nM],IC50 [3] [nM],IC50 [4] [nM],IC50 [5] [µM],logD at 0.5 h [6],IC50 [7] [nM],IC50 [8] [nM],IC50 [9] [µM],inhibition [10] [%],inhibition [11] [%],inhibition [12] [%],Compound
64,1300,6600,690,7.9,1.3,–,–,–,–,–,–,CN(C)CC(=O)N1CCC(c2cn(C)c(-c3cnc(N)c(-n4nnc5ccccc54)n3)n2)CC1
6,380,90,91,4.3,1.8,–,–,–,–,–,–,CN(C)CC(=O)N1CCC(c2cc(-c3cnc(N)c(-n4nnc5ccccc54)n3)n(C)n2)CC1
29,1000,9000,270,6.9,0.9,650,17,21,60,60,60,CN(C)CC(=O)N1CCC(c2nc(-c3cnc(N)c(-n4nnc5ccccc54)n3)n(C)n2)CC1

# Source: ChEMBL document CHEMBL3588784, “Design of selective PI3Kα inhibitors starting from a promiscuous pan kinase scaffold” (Bioorg Med Chem Lett, 2015)
